Experimental data published in the supplement of paper PMC13380429.

Columns and labels:
Conditions in all cases: 72 h
Calu-3 [1] = test: cell viability relative to DMSO; higher = less toxic
Caco-2 [2] = test: as above
HepG2 [3] = test: as above
U2OS [4] = test: as above
Calu-3 [5] = test: drug sensitivity score (DSS) for viability; higher = more toxic; extreme values may be limits of the assay
Caco-2 [6] = test: as above
HepG2 [7] = test: as above
U2OS [8] = test: as above
Calu-3 [9] = test: relative viability EC50 (midpoint between 100% and the lowest measured viability); higher = less toxic
Caco-2 [10] = test: as above
HepG2 [11] = test: as above
U2OS [12] = test: as above
Vero E6 [13] = test: cell viability relative to DMSO; higher = less toxic
Vero E6 [14] = test: drug sensitivity score (DSS) for viability; higher = more toxic; extreme values may be limits of the assay
Vero E6 [15] = test: relative viability EC50 (midpoint between 100% and the lowest measured viability); higher = less toxic

Structure (SMILES)	cell viability (Calu-3 [1]; 1 nM)	cell viability (Calu-3 [1]; 10 nM)	cell viability (Calu-3 [1]; 100 nM)	cell viability (Calu-3 [1]; 1000 nM)	cell viability (Calu-3 [1]; 10000 nM)	cell viability (Caco-2 [2]; 1 nM)	cell viability (Caco-2 [2]; 10 nM)	cell viability (Caco-2 [2]; 100 nM)	cell viability (Caco-2 [2]; 1000 nM)	cell viability (Caco-2 [2]; 10000 nM)	cell viability (HepG2 [3]; 1 nM)	cell viability (HepG2 [3]; 10 nM)	cell viability (HepG2 [3]; 100 nM)	cell viability (HepG2 [3]; 1000 nM)	cell viability (HepG2 [3]; 10000 nM)	cell viability (U2OS [4]; 1 nM)	cell viability (U2OS [4]; 10 nM)	cell viability (U2OS [4]; 100 nM)	cell viability (U2OS [4]; 1000 nM)	cell viability (U2OS [4]; 10000 nM)	drug sensitivity score (Calu-3 [5])	drug sensitivity score (Caco-2 [6])	drug sensitivity score (HepG2 [7])	drug sensitivity score (U2OS [8])	relative viability EC50 (Calu-3 [9])	relative viability EC50 (Caco-2 [10])	relative viability EC50 (HepG2 [11])	relative viability EC50 (U2OS [12])	cell viability (Vero E6 [13]; 1 nM)	cell viability (Vero E6 [13]; 10 nM)	cell viability (Vero E6 [13]; 100 nM)	cell viability (Vero E6 [13]; 1000 nM)	cell viability (Vero E6 [13]; 10000 nM)	drug sensitivity score (Vero E6 [14])	relative viability EC50 (Vero E6 [15])
CCOCCn1c(C2CCN(CCc3ccc(C(C)(C)C(=O)O)cc3)CC2)nc2ccccc21 [bilastine]	98.1%	106%	93.5%	97.8%	99.5%	102%	87.5%	85.6%	92.5%	87.8%	94.3%	96%	104%	97.6%	100%	96.6%	98.2%	103%	103%	95.7%	0	3.1	0	0	> 10 µM	> 10 µM	> 10 µM	> 10 µM	–	–	–	–	–	–	–
O=c1ccc2ccc(OCCCCN3CCN(c4cccc5sccc45)CC3)cc2[nH]1 [brexpiprazole]	95.5%	85%	96%	91.6%	104%	91.7%	96.7%	87.3%	98.1%	87.5%	100%	96.3%	96%	92%	56.8%	97.6%	99%	95.6%	101%	86.6%	0	0	3.5	0.1	> 10 µM	> 10 µM	–	> 10 µM	99.1%	97.5%	94.5%	94.5%	94.3%	0	> 10 µM
CN(C)C(=O)COC(=O)Cc1ccc(OC(=O)c2ccc(NC(=N)N)cc2)cc1 [camostat-mesilate]	100%	106%	98.2%	110%	103%	102%	98.9%	104%	105%	108%	–	–	–	–	–	97.8%	102%	94.2%	104%	102%	0	0	–	0	> 10 µM	> 10 µM	–	> 10 µM	110%	99.7%	101%	103%	106%	0	> 10 µM
Nc1ccncc1 [dalfampridine]	102%	104%	90.9%	99%	100%	102%	108%	99.1%	106%	96%	–	–	–	–	–	–	–	–	–	–	0	0	–	–	> 10 µM	> 10 µM	–	–	107%	102%	101%	101%	98.9%	0	> 10 µM
CN(C)CCOC(c1ccccc1)c1ccccc1 [diphenhydramine]	97.5%	104%	114%	112%	105%	100%	93.9%	96.1%	91.8%	128%	97.8%	93.3%	95.3%	103%	84.4%	102%	103%	104%	96.5%	102%	0	0	0.2	0	> 10 µM	> 10 µM	> 10 µM	> 10 µM	–	–	–	–	–	–	–
COC(=O)/C=C/C(=O)OCCN1C(=O)CCC1=O [diroximel-fumarate]	112%	112%	120%	92.5%	123%	109%	104%	107%	97.6%	92.4%	103%	115%	87.7%	115%	52.1%	101%	101%	105%	103%	98.9%	0	0	1.8	0	> 10 µM	> 10 µM	–	> 10 µM	98.4%	102%	92.2%	99%	106%	0	> 10 µM
CC1=C(CC(=O)O)c2cc(F)ccc2/C1=C\c1ccc(S(C)(=O)=O)cc1 [exisulind]	95.6%	102%	103%	97.6%	112%	96.4%	104%	91.6%	84.6%	94.8%	106%	95.3%	95.4%	96.7%	74.8%	103%	94.7%	100%	97.5%	100%	0	2.2	1.5	0	> 10 µM	> 10 µM	–	> 10 µM	104%	96.2%	87.8%	110%	94.8%	0	> 10 µM
CC(C(=O)O)c1cccc(Oc2ccccc2)c1 (configuration not stated) [fenoprofen]	98.1%	112%	111%	103%	103%	98.4%	93.5%	98.7%	101%	108%	–	–	–	–	–	96.7%	99.9%	97.5%	103%	105%	0	0	–	0	> 10 µM	> 10 µM	–	> 10 µM	101%	94%	95.3%	88.7%	112%	0	> 10 µM
Oc1cc(O)c(Cl)cn1 [gimeracil]	107%	105%	104%	98.3%	92.4%	97.8%	92.7%	97.7%	95.8%	98.1%	105%	106%	98.3%	96.2%	87.2%	100%	100%	104%	98.5%	104%	0	0	0.2	0	> 10 µM	> 10 µM	> 10 µM	> 10 µM	–	–	–	–	–	–	–
Cc1ccnc2c1CCCC2C(N)=S (configuration not stated) [isotiquimide]	95.1%	86.7%	98.1%	107%	106%	106%	102%	99.9%	96%	110%	103%	100%	92.4%	99.4%	98.6%	102%	97.4%	100%	101%	102%	0	0	0	0	> 10 µM	> 10 µM	> 10 µM	> 10 µM	–	–	–	–	–	–	–
NCCCC[C@H](N[C@@H](CCc1ccccc1)C(=O)O)C(=O)N1CCC[C@H]1C(=O)O [lisinopril]	109%	94.7%	110%	98.8%	93.4%	–	–	–	–	–	–	–	–	–	–	102%	95.7%	95%	97%	97.2%	0	–	–	0	> 10 µM	–	–	> 10 µM	104%	105%	102%	101%	99.2%	0	> 10 µM
CCCN1C[C@H](CSC)C[C@@H]2c3cccc4[nH]cc(c34)C[C@H]21 [pergolide]	89.8%	105%	104%	99.7%	101%	93.2%	93%	99.5%	96.4%	100%	–	–	–	–	–	97.3%	102%	100%	102%	97.3%	0	0	–	0	> 10 µM	> 10 µM	–	> 10 µM	95.9%	96.5%	95.6%	90%	96.4%	0	> 10 µM
CCn1cc(C(=O)O)c(=O)c2cnc(N3CCNCC3)nc21 [pipemidic-acid]	107%	99.1%	103%	96.9%	91.9%	94.2%	102%	95.5%	99.4%	92.9%	110%	108%	107%	99.8%	102%	98.7%	101%	97.4%	104%	100%	0	0	0	0	> 10 µM	> 10 µM	> 10 µM	> 10 µM	–	–	–	–	–	–	–
O=C(O)CCC(=O)Nc1ccc(S(=O)(=O)Nc2nccs2)cc1 [succinylsulfathiazole]	94%	96.2%	96.1%	112%	108%	93.9%	100%	89.6%	104%	102%	–	–	–	–	–	95.3%	100%	95.7%	99.9%	104%	0	0	–	0	> 10 µM	> 10 µM	–	> 10 µM	97.8%	97.3%	98.7%	92.1%	112%	0	> 10 µM
O=C(O)c1ccc2nc(-c3cc(Cl)cc(Cl)c3)oc2c1 [tafamidis-meglumine]	97.6%	95.8%	94.7%	93.1%	99.2%	103%	88%	102%	90.2%	103%	103%	102%	99.5%	99.6%	96%	100%	101%	101%	97.6%	100%	0	0	0	0	> 10 µM	> 10 µM	> 10 µM	> 10 µM	–	–	–	–	–	–	–
Cc1cccc(C)c1NC(=O)[C@@H](C)N [tocainide]	105%	92.3%	90%	108%	103%	96.8%	95.8%	97.5%	101%	95.5%	107%	102%	91.5%	94.2%	95.3%	100%	102%	99.2%	104%	98.5%	0	0	0	0	> 10 µM	> 10 µM	> 10 µM	> 10 µM	–	–	–	–	–	–	–
